System: rice plant
Assay: not given
Conditions: in vivo

Structure (SMILES)	Degree of chemical injury
CCCCCCc1cc(Sc2ccccc2)nc(-n2nc(C)cc2C)n1 [Compound 46]	0
CCCc1c(C)nc(-n2nc(C)cc2C)nc1OC [Compound 40]	0
Cc1cc(C)cc(Oc2cc(C)nc(-n3nc(C)cc3C)n2)c1 [Compound 29]	0
COc1ccc(Oc2cc(C)nc(-n3nc(C)cc3C)n2)cc1 [Compound 17]	0
Cc1cc(C)n(-c2nccc(Oc3ccccc3)n2)n1 [Compound 3]	0
Cc1cc(Oc2cccc(Cl)c2)nc(-n2nc(C)cc2C)n1 [Compound 7]	0
CCOc1ccnc(-n2nc(C)cc2C)n1 [Compound 1]	0
Cc1cc(Oc2ccccc2C)nc(-n2nc(C)cc2C)n1 [Compound 11]	0
Cc1cc(Oc2ccc(F)cc2)nc(-n2nc(C)cc2C)n1 [Compound 9]	0
Cc1cc(Sc2ccc(Cl)cc2)nc(-n2nc(C)cc2C)n1 [Compound 5]	0
CCCCc1c(C)nc(-n2nc(C)cc2C)nc1Sc1ccccc1 [Compound 44]	0
Cc1cccc(Oc2cc(C)nc(-n3nc(C)cc3C)n2)c1 [Compound 12]	0
Cc1cc(Oc2ccc(C(C)(C)C)cc2)nc(-n2nc(C)cc2C)n1 [Compound 15]	0
Cc1cc(C)c(C)c(Oc2cc(C)nc(-n3nc(C)cc3C)n2)c1 [Compound 30]	0
CCCCCCc1cc(SCC)nc(-n2nc(C)cc2C)n1 [Compound 45]	0
Cc1cc(Oc2ccccc2Cl)nc(-n2nc(C)cc2C)n1 [Compound 6]	0

System: rice plant
Assay: not given
Conditions: blast prevention test, 200 ppm

Structure (SMILES)	Degree of chemical injury
CCCCCCc1cc(Sc2ccccc2)nc(-n2nc(C)cc2C)n1 [Compound 46]	0
CCCc1c(C)nc(-n2nc(C)cc2C)nc1OC [Compound 40]	0
Cc1cc(C)cc(Oc2cc(C)nc(-n3nc(C)cc3C)n2)c1 [Compound 29]	0
COc1ccc(Oc2cc(C)nc(-n3nc(C)cc3C)n2)cc1 [Compound 17]	0
Cc1cc(C)n(-c2nccc(Oc3ccccc3)n2)n1 [Compound 3]	0
Cc1cc(Oc2cccc(Cl)c2)nc(-n2nc(C)cc2C)n1 [Compound 7]	0
CCOc1ccnc(-n2nc(C)cc2C)n1 [Compound 1]	0
Cc1cc(Oc2ccccc2C)nc(-n2nc(C)cc2C)n1 [Compound 11]	0
Cc1cc(Oc2ccc(F)cc2)nc(-n2nc(C)cc2C)n1 [Compound 9]	0
Cc1cc(Sc2ccc(Cl)cc2)nc(-n2nc(C)cc2C)n1 [Compound 5]	0
CCCCc1c(C)nc(-n2nc(C)cc2C)nc1Sc1ccccc1 [Compound 44]	0
Cc1cccc(Oc2cc(C)nc(-n3nc(C)cc3C)n2)c1 [Compound 12]	0
Cc1cc(Oc2ccc(C(C)(C)C)cc2)nc(-n2nc(C)cc2C)n1 [Compound 15]	0
Cc1cc(C)c(C)c(Oc2cc(C)nc(-n3nc(C)cc3C)n2)c1 [Compound 30]	0
CCCCCCc1cc(SCC)nc(-n2nc(C)cc2C)n1 [Compound 45]	0
Cc1cc(Oc2ccccc2Cl)nc(-n2nc(C)cc2C)n1 [Compound 6]	0

System: Pyricularia oryzae
Assay: not given
Assay type: in vivo, Pyricularia oryzae on rice plant (variety: Asahi)
Conditions: rice blast, curative treatment; sprayed liquid 200 ppm; 5 days after spraying

Structure (SMILES)	Control Value [%]
CCCCCCc1cc(Sc2ccccc2)nc(-n2nc(C)cc2C)n1 [Compound 46]	99
CCCc1c(C)nc(-n2nc(C)cc2C)nc1OC [Compound 40]	100
Cc1cc(C)cc(Oc2cc(C)nc(-n3nc(C)cc3C)n2)c1 [Compound 29]	100
COc1ccc(Oc2cc(C)nc(-n3nc(C)cc3C)n2)cc1 [Compound 17]	100
Cc1cc(C)n(-c2nccc(Oc3ccccc3)n2)n1 [Compound 3]	98
Cc1cc(Oc2cccc(Cl)c2)nc(-n2nc(C)cc2C)n1 [Compound 7]	100
CCOc1ccnc(-n2nc(C)cc2C)n1 [Compound 1]	100
Cc1cc(Oc2ccccc2C)nc(-n2nc(C)cc2C)n1 [Compound 11]	100
Cc1cc(Oc2ccc(F)cc2)nc(-n2nc(C)cc2C)n1 [Compound 9]	100
Cc1cc(Sc2ccc(Cl)cc2)nc(-n2nc(C)cc2C)n1 [Compound 5]	100
CCCCc1c(C)nc(-n2nc(C)cc2C)nc1Sc1ccccc1 [Compound 44]	92
Cc1cccc(Oc2cc(C)nc(-n3nc(C)cc3C)n2)c1 [Compound 12]	100
Cc1cc(Oc2ccc(C(C)(C)C)cc2)nc(-n2nc(C)cc2C)n1 [Compound 15]	100
Cc1cc(C)c(C)c(Oc2cc(C)nc(-n3nc(C)cc3C)n2)c1 [Compound 30]	100
CCCCCCc1cc(SCC)nc(-n2nc(C)cc2C)n1 [Compound 45]	90
Cc1cc(Oc2ccccc2Cl)nc(-n2nc(C)cc2C)n1 [Compound 6]	88

System: Sphaerotheca friliginea
Assay: Effect of controlling cucumber powdery mildew, Experimental Example 4
Assay type: in vivo
Conditions: sprayed liquid 200 ppm, 10 days after inoculation
Procedure: 10 ml of each of test liquids diluted to a predetermined concentration was sprayed over seedlings of a cucumber plant (variety: Sagami Hanpaku) grown up to the first leaf stage which has been soil cultured in an unglazed pot with a diameter of 9 cm in a green house. After allowing to stand overnight, the seedlings were sprayed for inoculation with a spore suspension of Sphaerotheca friliginea. Ten days after the inoculation, the rate of a lesion area (%) was checked and a control value was evaluated from the following equation. The degree of chemical injury against a cucumber plant was determined in the same manner as in Experimental Example.

Structure (SMILES)	Control Value [%]
CCCCCCc1cc(Sc2ccccc2)nc(-n2nc(C)cc2C)n1 [Compound 46]	83
CCCc1c(C)nc(-n2nc(C)cc2C)nc1OC [Compound 40]	97
Cc1cc(C)cc(Oc2cc(C)nc(-n3nc(C)cc3C)n2)c1 [Compound 29]	100
COc1ccc(Oc2cc(C)nc(-n3nc(C)cc3C)n2)cc1 [Compound 17]	100
Cc1cc(C)n(-c2nccc(Oc3ccccc3)n2)n1 [Compound 3]	94
Cc1cc(Oc2cccc(Cl)c2)nc(-n2nc(C)cc2C)n1 [Compound 7]	100
CCOc1ccnc(-n2nc(C)cc2C)n1 [Compound 1]	90
Cc1cc(Oc2ccccc2C)nc(-n2nc(C)cc2C)n1 [Compound 11]	90
Cc1cc(Oc2ccc(F)cc2)nc(-n2nc(C)cc2C)n1 [Compound 9]	100
Cc1cc(Sc2ccc(Cl)cc2)nc(-n2nc(C)cc2C)n1 [Compound 5]	85
CCCCc1c(C)nc(-n2nc(C)cc2C)nc1Sc1ccccc1 [Compound 44]	94
Cc1cccc(Oc2cc(C)nc(-n3nc(C)cc3C)n2)c1 [Compound 12]	100
Cc1cc(Oc2ccc(C(C)(C)C)cc2)nc(-n2nc(C)cc2C)n1 [Compound 15]	91
Cc1cc(C)c(C)c(Oc2cc(C)nc(-n3nc(C)cc3C)n2)c1 [Compound 30]	92
CCCCCCc1cc(SCC)nc(-n2nc(C)cc2C)n1 [Compound 45]	91
Cc1cc(Oc2ccccc2Cl)nc(-n2nc(C)cc2C)n1 [Compound 6]	100

System: rice plant
Assay: not given
Conditions: blast curative test, 200 ppm

Structure (SMILES)	Degree of chemical injury
CCCCCCc1cc(Sc2ccccc2)nc(-n2nc(C)cc2C)n1 [Compound 46]	0
CCCc1c(C)nc(-n2nc(C)cc2C)nc1OC [Compound 40]	0
Cc1cc(C)cc(Oc2cc(C)nc(-n3nc(C)cc3C)n2)c1 [Compound 29]	0
COc1ccc(Oc2cc(C)nc(-n3nc(C)cc3C)n2)cc1 [Compound 17]	0
Cc1cc(C)n(-c2nccc(Oc3ccccc3)n2)n1 [Compound 3]	0
Cc1cc(Oc2cccc(Cl)c2)nc(-n2nc(C)cc2C)n1 [Compound 7]	0
CCOc1ccnc(-n2nc(C)cc2C)n1 [Compound 1]	0
Cc1cc(Oc2ccccc2C)nc(-n2nc(C)cc2C)n1 [Compound 11]	0
Cc1cc(Oc2ccc(F)cc2)nc(-n2nc(C)cc2C)n1 [Compound 9]	0
Cc1cc(Sc2ccc(Cl)cc2)nc(-n2nc(C)cc2C)n1 [Compound 5]	0
CCCCc1c(C)nc(-n2nc(C)cc2C)nc1Sc1ccccc1 [Compound 44]	0
Cc1cccc(Oc2cc(C)nc(-n3nc(C)cc3C)n2)c1 [Compound 12]	0
Cc1cc(Oc2ccc(C(C)(C)C)cc2)nc(-n2nc(C)cc2C)n1 [Compound 15]	0
Cc1cc(C)c(C)c(Oc2cc(C)nc(-n3nc(C)cc3C)n2)c1 [Compound 30]	0
CCCCCCc1cc(SCC)nc(-n2nc(C)cc2C)n1 [Compound 45]	0
Cc1cc(Oc2ccccc2Cl)nc(-n2nc(C)cc2C)n1 [Compound 6]	0

System: Pyricularia oryzae
Assay: not given
Assay type: in vivo, Pyricularia oryzae on rice plant (variety: Asahi)
Conditions: rice blast, prevention; 200 ppm; 5 days after inoculation

Structure (SMILES)	Control Value [%]
CCCCCCc1cc(Sc2ccccc2)nc(-n2nc(C)cc2C)n1 [Compound 46]	84
CCCc1c(C)nc(-n2nc(C)cc2C)nc1OC [Compound 40]	100
Cc1cc(C)cc(Oc2cc(C)nc(-n3nc(C)cc3C)n2)c1 [Compound 29]	100
COc1ccc(Oc2cc(C)nc(-n3nc(C)cc3C)n2)cc1 [Compound 17]	100
Cc1cc(C)n(-c2nccc(Oc3ccccc3)n2)n1 [Compound 3]	100
Cc1cc(Oc2cccc(Cl)c2)nc(-n2nc(C)cc2C)n1 [Compound 7]	100
CCOc1ccnc(-n2nc(C)cc2C)n1 [Compound 1]	100
Cc1cc(Oc2ccccc2C)nc(-n2nc(C)cc2C)n1 [Compound 11]	100
Cc1cc(Oc2ccc(F)cc2)nc(-n2nc(C)cc2C)n1 [Compound 9]	100
Cc1cc(Sc2ccc(Cl)cc2)nc(-n2nc(C)cc2C)n1 [Compound 5]	100
CCCCc1c(C)nc(-n2nc(C)cc2C)nc1Sc1ccccc1 [Compound 44]	100
Cc1cccc(Oc2cc(C)nc(-n3nc(C)cc3C)n2)c1 [Compound 12]	100
Cc1cc(Oc2ccc(C(C)(C)C)cc2)nc(-n2nc(C)cc2C)n1 [Compound 15]	100
Cc1cc(C)c(C)c(Oc2cc(C)nc(-n3nc(C)cc3C)n2)c1 [Compound 30]	100
CCCCCCc1cc(SCC)nc(-n2nc(C)cc2C)n1 [Compound 45]	92
Cc1cc(Oc2ccccc2Cl)nc(-n2nc(C)cc2C)n1 [Compound 6]	100

System: Cochliobolus miyabeanus
Assay: Effect of controlling rice brown spot, Experimental Example 3
Assay type: in vivo, Cochliobolus miyabeanus on rice plant (variety: Asahi)
Conditions: sprayed liquid 500 ppm, 5 days after inoculation

Structure (SMILES)	Control Value [%]
CCCCCCc1cc(Sc2ccccc2)nc(-n2nc(C)cc2C)n1 [Compound 46]	99
CCCc1c(C)nc(-n2nc(C)cc2C)nc1OC [Compound 40]	81
Cc1cc(C)cc(Oc2cc(C)nc(-n3nc(C)cc3C)n2)c1 [Compound 29]	100
COc1ccc(Oc2cc(C)nc(-n3nc(C)cc3C)n2)cc1 [Compound 17]	100
Cc1cc(C)n(-c2nccc(Oc3ccccc3)n2)n1 [Compound 3]	100
Cc1cc(Oc2cccc(Cl)c2)nc(-n2nc(C)cc2C)n1 [Compound 7]	100
CCOc1ccnc(-n2nc(C)cc2C)n1 [Compound 1]	99
Cc1cc(Oc2ccccc2C)nc(-n2nc(C)cc2C)n1 [Compound 11]	100
Cc1cc(Oc2ccc(F)cc2)nc(-n2nc(C)cc2C)n1 [Compound 9]	100
Cc1cc(Sc2ccc(Cl)cc2)nc(-n2nc(C)cc2C)n1 [Compound 5]	100
CCCCc1c(C)nc(-n2nc(C)cc2C)nc1Sc1ccccc1 [Compound 44]	91
Cc1cccc(Oc2cc(C)nc(-n3nc(C)cc3C)n2)c1 [Compound 12]	100
Cc1cc(Oc2ccc(C(C)(C)C)cc2)nc(-n2nc(C)cc2C)n1 [Compound 15]	81
Cc1cc(C)c(C)c(Oc2cc(C)nc(-n3nc(C)cc3C)n2)c1 [Compound 30]	87
CCCCCCc1cc(SCC)nc(-n2nc(C)cc2C)n1 [Compound 45]	88
Cc1cc(Oc2ccccc2Cl)nc(-n2nc(C)cc2C)n1 [Compound 6]	100

System: cucumber plant
Assay: not given
Conditions: in vivo

Structure (SMILES)	Degree of chemical injury
CCCCCCc1cc(Sc2ccccc2)nc(-n2nc(C)cc2C)n1 [Compound 46]	0
CCCc1c(C)nc(-n2nc(C)cc2C)nc1OC [Compound 40]	0
Cc1cc(C)cc(Oc2cc(C)nc(-n3nc(C)cc3C)n2)c1 [Compound 29]	0
COc1ccc(Oc2cc(C)nc(-n3nc(C)cc3C)n2)cc1 [Compound 17]	0
Cc1cc(C)n(-c2nccc(Oc3ccccc3)n2)n1 [Compound 3]	0
Cc1cc(Oc2cccc(Cl)c2)nc(-n2nc(C)cc2C)n1 [Compound 7]	0
CCOc1ccnc(-n2nc(C)cc2C)n1 [Compound 1]	0
Cc1cc(Oc2ccccc2C)nc(-n2nc(C)cc2C)n1 [Compound 11]	0
Cc1cc(Oc2ccc(F)cc2)nc(-n2nc(C)cc2C)n1 [Compound 9]	0
Cc1cc(Sc2ccc(Cl)cc2)nc(-n2nc(C)cc2C)n1 [Compound 5]	0
CCCCc1c(C)nc(-n2nc(C)cc2C)nc1Sc1ccccc1 [Compound 44]	0
Cc1cccc(Oc2cc(C)nc(-n3nc(C)cc3C)n2)c1 [Compound 12]	0
Cc1cc(Oc2ccc(C(C)(C)C)cc2)nc(-n2nc(C)cc2C)n1 [Compound 15]	0
Cc1cc(C)c(C)c(Oc2cc(C)nc(-n3nc(C)cc3C)n2)c1 [Compound 30]	0
CCCCCCc1cc(SCC)nc(-n2nc(C)cc2C)n1 [Compound 45]	0
Cc1cc(Oc2ccccc2Cl)nc(-n2nc(C)cc2C)n1 [Compound 6]	0

— patent US4405743A, “Pyrazolylpyrimidine derivatives” (Hokko Chemical Industry Co., Ltd., priority 1981, dated 1983)
